# From PubChem BioAssay (NCI)
#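 Exposure lasted 48 hours, with cells grown in 96-well plates and compounds tested at five concentrations. Here, GI50 denotes the concentration required for 50% inhibition of growth. The concentration for full growth arrest is given as TGI.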
# Tests used:
# Test in all cases: NCI tumour cell line growth inhibition, 48 h
# M19-MEL melanoma = test system: M19-MEL melanoma
# RXF-631 renal = test system: RXF-631 renal
# LXFL 529 NSCLC = test system: LXFL 529 NSCLC
# KM20L2 colon = test system: KM20L2 colon
# HOP-18 NSCLC = test system: HOP-18 NSCLC
# DMS 273 small cell lung = test system: DMS 273 small cell lung
# NCI/ADR-RES ovarian = test system: NCI/ADR-RES ovarian
# MDA-N = test system: MDA-N
# P388 leukemia = test system: P388 leukemia
# HS 578T breast = test system: HS 578T breast
Compound,TGI (M19-MEL melanoma),TGI (RXF-631 renal),TGI (LXFL 529 NSCLC),TGI (KM20L2 colon),TGI (HOP-18 NSCLC),TGI (DMS 273 small cell lung),GI50 (M19-MEL melanoma),GI50 (RXF-631 renal),GI50 (LXFL 529 NSCLC),GI50 (KM20L2 colon),GI50 (HOP-18 NSCLC),GI50 (DMS 273 small cell lung),GI50 (NCI/ADR-RES ovarian),TGI (NCI/ADR-RES ovarian),GI50 (MDA-N),TGI (MDA-N),GI50 (P388 leukemia),TGI (P388 leukemia),GI50 (HS 578T breast),TGI (HS 578T breast)
N#CC(/C(=N/NC(N)=S)C(=O)Nc1cccc(Cl)c1)c1ccccc1 (stereo not drawn),> 100 µM,> 100 µM,> 100 µM,> 100 µM,> 100 µM,> 100 µM,–,–,–,–,–,–,–,–,–,–,–,–,–,–
O=c1nc(N2CCCC2)nc(N2CCCC2)s1,> 100 µM,> 100 µM,> 100 µM,> 100 µM,> 100 µM,> 100 µM,–,–,–,–,–,–,–,–,–,–,–,–,–,–
Cc1ccc(NC(=O)/C(=N\NC(N)=S)C(C#N)c2ccccc2C)cc1C (stereo not drawn),> 100 µM,> 100 µM,> 100 µM,> 100 µM,> 100 µM,> 100 µM,–,–,–,–,–,–,–,–,–,–,–,–,–,–
NC(=S)N/N=C(\CCC(=O)Nc1ccccc1[N+](=O)[O-])CC(=O)c1ccco1,> 100 µM,> 100 µM,> 100 µM,> 100 µM,> 100 µM,> 100 µM,–,–,–,–,–,–,–,–,–,–,–,–,–,–
CCc1cccc(CC)c1NC(=O)CC1SC(N)=NC1=O (stereo not drawn),> 100 µM,> 100 µM,> 100 µM,–,> 100 µM,> 100 µM,–,–,–,–,–,–,–,–,–,–,–,–,–,–
CC(=O)SC(SC(C)=O)SC(C)=O,> 100 µM,> 100 µM,> 100 µM,> 100 µM,> 100 µM,> 100 µM,–,–,–,–,–,–,–,–,–,–,–,–,–,–
CC(=O)OCC1OC([Se-])C(OC(C)=O)C(OC(C)=O)C1OC(C)=O.N#CCC[PH+](CCC#N)CCC#N.[Au+] (stereo not drawn),> 27.9 µM,> 100 µM,37.3 µM,41.1 µM,46.9 µM,49.7 µM,3.11 µM,16 µM,3.5 µM,7 µM,12.6 µM,4.09 µM,–,–,–,–,–,–,–,–
CC(=O)CC(=O)NC=O,> 100 µM,> 100 µM,> 100 µM,> 100 µM,> 100 µM,> 100 µM,–,–,–,–,–,–,–,–,–,–,–,–,–,–
O=C(N/C=C/C=C/Sc1ccccc1)OCc1ccccc1,31.5 µM,39.3 µM,32.5 µM,31 µM,65 µM,31.4 µM,–,–,–,–,–,–,–,–,–,–,–,–,–,–
O=C(O)c1ccc(C(=O)O)c(C(=O)O)c1.[NH-]C1CCCCC1[NH-].[Pt+2],46 µM,–,> 100 µM,27.7 µM,84.6 µM,9.31 µM,1.41 µM,–,5.94 µM,0.768 µM,11.8 µM,0.417 µM,3.56 µM,60.5 µM,1.15 µM,24.7 µM,0.262 µM,14.6 µM,13.5 µM,84.5 µM
Fc1ccc(C2SCc3nc4ccccc4n32)cc1F (stereo not drawn),> 100 µM,> 100 µM,> 100 µM,> 100 µM,> 100 µM,97.9 µM,–,–,–,–,–,–,–,–,–,–,–,–,–,–
